Experimental data reported in patent publication US4504580A, “Antibiotics produced by fermentation of a novel strain of Streptomyces hygroscopicus” (Bristol-Myers Company, priority 1983, dated 1985).
Values after ≈ are worked out from the molar mass of the structure shown. Read-outs that look alike come from different tables or passages of the source.

Columns and labels:
[1] = test system: Bacillus subtilis PCI 219; assay: MIC by serial two-fold agar dilution, B. subtilis PCI 219; format: cell-based; conditions: Mueller-Hinton agar
Procedure: (§1) The minimum inhibitory concentrations (MIC) of Bu-2659A, B, C, D and E were determined for a variety of gram-positive and gram-negative bacteria by the serial two-fold agar dilution method using the Steer's multi-inoculating apparatus. The inoculum was standardized as a 10^4 dilution of an overnight culture of the test organisms in Heart Infusion Broth (Difco). […] Reference antibiotics utilized in these tests included commercially available neomycin as well as its components, neomycins B and C [as used herein, the term "neomycin" means the commercial product containing neomycins B and C at an approximate ratio of 7:3], paromomycin [the commercial product containing >90% of paromomycin I and <10% of paromomycin II] and ribostamycin.

Escherichia coli JR88 = assay: MIC, aminoglycoside-resistant E. coli JR88; format: cell-based
Procedure: as §1

Proteus vulgaris A9436 = assay: MIC by serial two-fold agar dilution, P. vulgaris A9436; format: cell-based; conditions: Mueller-Hinton agar
Procedure: as §1

Proteus mirabilis A9554 = assay: MIC by serial two-fold agar dilution, P. mirabilis A9554; format: cell-based; conditions: Mueller-Hinton agar
Procedure: as §1

bacteria of Table 10 = assay: In vitro activity of Bu-2659 DP-I vs neamine, overall, Table 10; format: cell-based
Procedure: as §1
The in vitro activity of Bu-2659 DP-I (1-deamino-1-hydroxyneamine) is shown in Table 10 along with that of neamine.

[2] = test system: Staphylococcus aureus 209P; assay: MIC by serial two-fold agar dilution, S. aureus 209P; format: cell-based; conditions: Mueller-Hinton agar
Procedure: as §1

[3] = test system: Klebsiella pneumoniae D11; assay: MIC by serial two-fold agar dilution, K. pneumoniae D11; format: cell-based; conditions: Mueller-Hinton agar
Procedure: as §1

[4] = test system: Pseudomonas aeruginosa A9930; assay: MIC by serial two-fold agar dilution, P. aeruginosa A9930; format: cell-based; conditions: Mueller-Hinton agar
Procedure: as §1

Escherichia coli NIHJ = assay: MIC by serial two-fold agar dilution, E. coli NIHJ; format: cell-based; conditions: Mueller-Hinton agar
Procedure: as §1

[5] = test system: Staphylococcus aureus Smith; assay: MIC by serial two-fold agar dilution, S. aureus Smith; format: cell-based; conditions: Mueller-Hinton agar
Procedure: as §1

[6] = test system: Klebsiella pneumoniae D-11; assay: Experimental systemic infection in mice, K. pneumoniae D-11; format: in vivo; conditions: im, single treatment, 4 days
Procedure: (§2) The in vivo activity of Bu-2659A was assessed by experimental systemic infection in mice. The pathogenic bacteria used in the in vivo tests were E. coli Juhl, K. pneumoniae D-11, P. mirabilis A9906, S. aureus Smith and S. pyogenes A20201. Mice were challenged intraperitoneally with approximately 100×LD50 dose of the pathogens in a 5% suspension of hog gastric mucin (American Laboratories, Omaha, Neb.). A single intramuscular treatment with the antibiotic was given immediately after the bacterial challenge. […] Neomycin was comparatively tested as a reference compound. […] In terms of PD50 value Bu-2659A was about one-half as active as neomycin against infections with S. aureus and S. pyogenes.

Mycobacterium ranae = assay: MIC by serial two-fold agar dilution, M. ranae; format: cell-based; conditions: Table 8; No. 1001 medium
Procedure: as §1

Proteus rettgeri A15167 = assay: MIC by serial two-fold agar dilution, P. rettgeri A15167; format: cell-based; conditions: Table 7; Mueller-Hinton agar
Procedure: as §1

[7] = test system: Staphylococcus aureus D136; assay: MIC by serial two-fold agar dilution, S. aureus D136; format: cell-based; conditions: Table 7; Mueller-Hinton agar
Procedure: as §1

[8] = test system: Micrococcus luteus PCI 1001; assay: MIC by serial two-fold agar dilution, M. luteus PCI 1001; format: cell-based; conditions: Table 7; Mueller-Hinton agar
Procedure: as §1

[9] = test system: Streptococcus pneumoniae Type I; assay: MIC by serial two-fold agar dilution, S. pneumoniae Type I; format: cell-based; conditions: Table 8; GC medium
Procedure: as §1

[10] = test system: Haemophilus influenzae A9729; assay: MIC by serial two-fold agar dilution, H. influenzae A9729; format: cell-based; conditions: Table 8; GC medium
Procedure: as §1

Proteus mirabilis A9906 [11] = assay: MIC by serial two-fold agar dilution, P. mirabilis A9906; format: cell-based; conditions: Table 7; Mueller-Hinton agar
Procedure: as §1

[12] = test system: Serratia marcescens A20019; assay: MIC by serial two-fold agar dilution, S. marcescens A20019; format: cell-based; conditions: Table 7; Mueller-Hinton agar
Procedure: as §1

[13] = test system: Staphylococcus aureus A20239; assay: MIC, aminoglycoside-resistant S. aureus A20239; format: cell-based; conditions: Table 9; inactivating enzyme APH(3')-I,II; Mueller-Hinton agar
Procedure: as §1

Proteus mirabilis A9906 [14] = assay: Experimental systemic infection in mice, P. mirabilis A9906; format: in vivo; conditions: im, single treatment, 4 days
Procedure: as §2

[15] = test system: species of Streptococcus and Mycobacterium; assay: Antibacterial activity (MIC), overall, Streptococcus and Mycobacterium, Table 8; format: cell-based
Procedure: as §1

[16] = test system: Mycobacterium smegmatis 607; assay: MIC by serial two-fold agar dilution, M. smegmatis 607; format: cell-based; conditions: Table 8; No. 1001 medium
Procedure: as §1

Escherichia coli Juhl [17] = assay: MIC by serial two-fold agar dilution, E. coli Juhl; format: cell-based; conditions: Table 7; Mueller-Hinton agar
Procedure: as §1

Acute toxicity in mice = format: in vivo; conditions: mice
Procedure: The acute toxicity of Bu-2659A was determined in mice by intravenous, intraperitoneal and subcutaneous routes. Neomycin also was tested for comparison purposes. […] The toxicity of Bu-2659A was approximately 1/3 that of neomycin in terms of LD50 values, thus presenting a potential clinical advantage for Bu-2659A.

[18] = test system: Pseudomonas aeruginosa A20601; assay: MIC, aminoglycoside-resistant P. aeruginosa A20601; format: cell-based; conditions: Table 9; inactivating enzymes AAC(3)-I, APH(3')-II; Mueller-Hinton agar
Procedure: as §1

[19] = test system: Neisseria gonorrhoeae A20143; assay: MIC by serial two-fold agar dilution, N. gonorrhoeae A20143; format: cell-based; conditions: Table 8; GC medium
Procedure: as §1

Micrococcus flavus D12 = assay: MIC by serial two-fold agar dilution, M. flavus D12; format: cell-based; conditions: Table 7; Mueller-Hinton agar
Procedure: as §1

Proteus morganii A9553 = assay: MIC by serial two-fold agar dilution, P. morganii A9553; format: cell-based; conditions: Table 7; Mueller-Hinton agar
Procedure: as §1

Escherichia coli ML 1630 = assay: MIC, aminoglycoside-resistant E. coli ML 1630; format: cell-based; conditions: Table 9; inactivating enzyme APH(3')-I; Mueller-Hinton agar
Procedure: as §1

Escherichia coli A20107 = assay: MIC, aminoglycoside-resistant E. coli A20107; format: cell-based; conditions: Table 9; inactivating enzyme APH(3')-II; Mueller-Hinton agar
Procedure: as §1

[20] = test system: Escherichia coli JR66/W677; assay: MIC, aminoglycoside-resistant E. coli JR66/W677; format: cell-based; conditions: Table 9; inactivating enzymes APH(3')-II, ANT(2"); Mueller-Hinton agar
Procedure: as §1

[21] = test system: Escherichia coli NR79/W677; assay: MIC, aminoglycoside-resistant E. coli NR79/W677; format: cell-based; conditions: Table 9; inactivating enzyme AAC(6')-I; Mueller-Hinton agar
Procedure: as §1

[22] = test system: Pseudomonas aeruginosa D15; assay: MIC by serial two-fold agar dilution, P. aeruginosa D15; format: cell-based; conditions: Table 7; Mueller-Hinton agar
Procedure: as §1

[23] = test system: Pseudomonas aeruginosa A20896; assay: MIC, aminoglycoside-resistant P. aeruginosa A20896; format: cell-based; conditions: Table 9; inactivating enzyme AAC(3)-II; Mueller-Hinton agar
Procedure: as §1

[24] = test system: Neisseria meningitidis A21496; assay: MIC by serial two-fold agar dilution, N. meningitidis A21496; format: cell-based; conditions: Table 8; GC medium
Procedure: as §1

[25] = test system: Bacillus brevis IFO 12334; assay: MIC, aminoglycoside-resistant B. brevis IFO 12334; format: cell-based; conditions: Table 9; inactivating enzyme ANT (4'); Mueller-Hinton agar
Procedure: as §1

[26] = test system: Enterobacter cloacae A20364; assay: MIC, aminoglycoside-resistant E. cloacae A20364; format: cell-based; conditions: Table 9; inactivating enzyme APH(3')-I; Mueller-Hinton agar
Procedure: as §1

[27] = test system: Streptococcus pyogenes A20201; assay: MIC by serial two-fold agar dilution, S. pyogenes A20201; format: cell-based; conditions: Table 8; GC medium
Procedure: as §1

Mycobacterium phlei = assay: MIC by serial two-fold agar dilution, M. phlei; format: cell-based; conditions: Table 8; No. 1001 medium
Procedure: as §1

Escherichia coli Juhl [28] = assay: Experimental systemic infection in mice, E. coli Juhl; format: in vivo; conditions: im, single treatment, 4 days
Procedure: as §2

Escherichia coli A20732 = assay: MIC, aminoglycoside-resistant E. coli A20732; format: cell-based; conditions: Table 9; inactivating enzyme ANT(2"); Mueller-Hinton agar
Procedure: as §1

[29] = test system: Escherichia coli JR35/C600; assay: MIC, aminoglycoside-resistant E. coli JR35/C600; format: cell-based; conditions: Table 9; inactivating enzyme APH(3')-I; Mueller-Hinton agar
Procedure: as §1

[30] = test system: Staphylococcus aureus Smith; assay: Experimental systemic infection in mice, S. aureus Smith; format: in vivo; conditions: im, single treatment, 4 days
Procedure: as §2

[31] = test system: Streptococcus pyogenes A20201; assay: Experimental systemic infection in mice, S. pyogenes A20201; format: in vivo; conditions: im, single treatment, 4 days
Procedure: as §2

`NC[C@H]1O[C@H](O[C@H]2[C@H](O)[C@@H](O)[C@H](O)C[C@@H]2N)[C@H](N)[C@@H](O)[C@@H]1O` [Bu-2659 DP-I, 1-deamino-1-hydroxyneamine] showed an MIC ([1]; Bacillus subtilis, PCI219, Table 10, read-out: MIC) of 100 µg/mL (≈ 309 µM), an MIC (Escherichia coli JR88; Escherichia coli, JR88) of 200 µg/mL (≈ 619 µM) and an MIC (Proteus vulgaris A9436; Proteus vulgaris, A9436, Table 10, read-out: MIC) of 200 µg/mL (≈ 619 µM). The MIC (Proteus mirabilis A9554; Proteus mirabilis, A9554, Table 10, read-out: MIC) was 800 µg/mL (≈ 2470 µM), the “in vitro activity compared with neamine, in words” value (bacteria of Table 10) was “much less active than neamine” and the MIC ([2]; Staphylococcus aureus, 209P, Table 10, read-out: MIC) was 200 µg/mL (≈ 619 µM). For the same compound, the MIC ([3]; Klebsiella pneumoniae, D11, Table 10, read-out: MIC) was 200 µg/mL (≈ 619 µM), the MIC ([4]; Pseudomonas aeruginosa, A9930, Table 10, read-out: MIC) was > 800 µg/mL and the MIC (Escherichia coli NIHJ; Escherichia coli, Table 10, read-out: MIC) was 200 µg/mL (≈ 619 µM). For the same compound, the MIC ([5]; Staphylococcus aureus, Table 10, read-out: MIC) was 200 µg/mL (≈ 619 µM).

Compound neomycin has a PD50 [6] of 0.9 mg/kg, an MIC (Mycobacterium ranae) of 0.4 µg/mL and an MIC (Proteus rettgeri A15167) of 1.6 µg/mL. For the same compound, the MIC ([1]; Table 7) was < 0.05 µg/mL, the MIC [7] was 0.8 µg/mL and the MIC [8] was 0.8 µg/mL. The MIC [9] was 25 µg/mL, the MIC [10] was 400 µg/mL and the MIC (Proteus mirabilis A9906 [11]) was 0.8 µg/mL. The MIC [12] was 1.6 µg/mL, the MIC (Escherichia coli JR88; Table 9, inactivating enzyme AAC(3)-I, Mueller-Hinton agar) was 1.6 µg/mL and the MIC [13] was 25 µg/mL. The PD50 (Proteus mirabilis A9906 [14]) was 1.8 mg/kg, the “activity against Streptococcus and Mycobacterium, in words” value [15] was “equivalent activity” and the MIC (Proteus vulgaris A9436; Table 7) was 0.8 µg/mL. It also gave an MIC (Proteus mirabilis A9554; Table 7) of 0.8 µg/mL, an MIC [16] of 0.4 µg/mL and an MIC (Escherichia coli Juhl [17]) of 3.1 µg/mL. The LD50 (Acute toxicity in mice; intraperitoneal) was 180 mg/kg, the LD50 (Acute toxicity in mice; intravenous) was 34 mg/kg and the LD50 (Acute toxicity in mice; subcutaneous) was 280 mg/kg. For the same compound, the MIC [18] was 12.5 µg/mL, the MIC [19] was > 400 µg/mL and the MIC (Micrococcus flavus D12) was 3.1 µg/mL. For the same compound, the MIC (Proteus morganii A9553) was 3.1 µg/mL, the MIC (Escherichia coli ML 1630) was > 100 µg/mL and the MIC ([2]; Table 7) was 0.4 µg/mL. For the same compound, the MIC (Escherichia coli A20107) was 100 µg/mL, the MIC [20] was > 100 µg/mL and the MIC [21] was 50 µg/mL. For the same compound, the MIC [22] was 3.1 µg/mL, the MIC [23] was > 100 µg/mL and the MIC [24] was 400 µg/mL. The MIC ([3]; Table 7) was 0.4 µg/mL, the MIC ([4]; Table 7) was 3.1 µg/mL and the MIC (Escherichia coli NIHJ; Table 7) was 1.6 µg/mL. For the same compound, the MIC [25] was 25 µg/mL, the MIC [26] was > 100 µg/mL and the MIC ([5]; Table 7) was 0.8 µg/mL. It also gave an MIC [27] of 12.5 µg/mL, an MIC (Mycobacterium phlei) of 0.2 µg/mL and a PD50 (Escherichia coli Juhl [28]) of 3.1 mg/kg. For the same compound, the MIC (Escherichia coli A20732) was 0.8 µg/mL, the MIC [29] was > 100 µg/mL and the PD50 [30] was 0.31 mg/kg. The PD50 [31] was 50 mg/kg.
